From patent US20230225990A1, “DIMETHYL SULFONE FOR TREATMENT OF CHRONICALLY HEAT STRESSED POULTRY” (Evonik Operations GmbH, priority 2020, published 2023)
Marks after values point to notes of the source that are not given here.

Columns and labels:
[1] = tested on: male broilers subjected to chronic cyclic heat stress; test: Carcass yield and portions on d-40; format: in vivo, broiler chickens (Ross 308); settings: d-40 after overnight fasting
Source text: Sampling of two birds per pen (with weight close to average weight of the pen) on d-40 after overnight fasting (no heat stress that day) • Carcass yield, breast percentage, thigh percentage, drumstick percentage and abdominal fat • Carcass yield: with skin, bled, without internal organs, without feet, without head, without neck, without abdominal fat; relative to bird body weight • Breast percentage: skinless, boneless; relative to bird body weight • Thigh percentage: with skin, with bone; relative to bird body weight • Drumstick percentage: with skin, with bone; relative to bird body weight • Abdominal fat percentage: abdominal fat; relative to bird body weight • Breast meat quality • Scoring of breast myopathies (wooden breast and white striping) • Wooden breast: normal, 0; mild, 1 and severe, 2 • White striations: normal, 0; mild, 1, and severe, 2 • pH and colour, both at time 0 h and 24 h (after sampling at time 0 h, breasts are stored at 4° C. until 24 h) • Drip loss, determined for periods 0-24 h and for period 0-72 h (after sampling at time 0 h, breasts are stored at 4° C. until 72 h, and weight without exuded water at 24 h and 72 h) • Press loss, determined at 24 h (after sampling at time 0 h, breasts are stored at 4° C. until 24 h, prior to determine press loss) • Oxidative stability (TBARS after simulated retail display)

[2] = tested on: male broilers subjected to chronic cyclic heat stress; test: Parameters in blood of birds sampled at d-23, d-25 and d-39; format: in vivo, broiler chickens (Ross 308); settings: for GSSG/GSH / Glutathione (GSH) / Oxidized glutathione (GSSG): erythrocytes; for Glutathione peroxidase / Heat shock protein 70 / Malondialdehyde / Super oxide dismutase: plasma; for Nitric oxide / T3 (triiodothyronine) / T3/T4 / T4 (thyroxine): serum
Method: Sampling of one bird per pen (with weight close to average weight of the pen) on d-23, d-25 and on d-39 (on d-25 and d-39, sampling starts after >3 h of heat stress that day; 108 birds in total) • malondialdehyde, HSP70 (Chicken Heat Shock Protein 70, Hsp-70 ELISA Kit) Cusabio Code CSB-E11196Ch), HSP90 (Chicken Heat Shock Protein 90, HSP-90 ELISA Kit; Cusabio Code CSB-E12873C), GPx, SOD in plasma; GSH/GSSG in erythrocytes; and T3, T4 and nitric oxide in serum • Breast muscle and liver: malondialdehyde, AOX (GPx, SOD), GSH/GSSG
For physiological measurements, time of sampling (representing the number of minutes between the beginning of heat stress and the precise moment of sampling of the bird that day), if appropriate, was included in the model as a covariable if significant as well. Orthogonal contrasts were applied to test for linear and quadratic effects upon incremental levels of DMS supplementation in the diet. Means are given as estimated marginal means (least square means). Means were separated using the Tukey post-hoc test. Differences were considered significant when p<0.05 and as a trend for significance when p<0.1.
Heat shock protein 70 and heat shock protein 90 were determined in plasma employing the competitive inhibition enzyme immunoassay technique (HSP70, Chicken Heat Shock Protein 70, Hsp-70 ELISA Kit; Cusabio Code CSB-E11196Ch) and the quantitative sandwich enzyme immunoassay technique (HSP90, Chicken Heat Shock Protein 90, HSP-90 ELISA Kit; Cusabio Code CSB-E12873C), respectively. Regarding HSP-90 very low absorbances were found and in most cases fell below the lowest standard dilution. Values were then typically less than 0.39 ng/mL, the minimum detectable dose as mentioned in the user manual. For that reason, no data for HSP-90 could be reported here. Opposite to that, HSP-70 worked properly and values were all above sensitivity of 0.125 ng/mL. No treatments effects on HSP-70 could be perceived on either sampling day, apart from a trend for linear reduction on d-23. […] It must be noted that large variation across samples was found on d-39. Thyroxine (T4) could not be detected on d-23, while higher values were found on d-25 and d-39. A trend for linear increase on d-39 by higher DMS dose was observed. […] It means that conversion efficiency was not altered by diet. Irrespective of treatment is the sharp reduction in circulating T3 levels as birds age and thus subjected for long period to heat stress. As indicated above, this can be regarded as an adaptation to reduce body metabolism and hitherto metabolic heat production, and apparently birds fed DMS seems to be less affected. Nitric oxide was not different across treatments at any sampling day. Further, interesting changes in malondialdehyde, a marker of lipid peroxidation, were found. […] The higher GSH in DMS-fed chickens thus promotes antioxidant function and redox homeostasis. However, no relation could be established between plasma malondialdehyde and erythrocyte glutathione (FIG. 17).

With `CS(C)(=O)=O` [DMS, dimethyl sulfone] the Body weight ([1]; 0.1% DMS in diet (T2)) was 3010 g, the Body weight ([1]; 0.2% DMS in diet (T3)) was 2980 g and the GSSG/GSH ([2]; 0.1% DMS in diet (T2), d-23) was 0.015. For the same compound, the “Glutathione (GSH)” value ([2]; 0.1% DMS in diet (T2), d-23) was 1.07 µmol/mL, the “Oxidized glutathione (GSSG)” value ([2]; 0.1% DMS in diet (T2), d-23) was 0.017 µmol/mL and the GSSG/GSH ([2]; 0.1% DMS in diet (T2), d-25) was 0.017^a. The “Glutathione (GSH)” value ([2]; 0.1% DMS in diet (T2), d-25) was 0.59 µmol/mL, the “Oxidized glutathione (GSSG)” value ([2]; 0.1% DMS in diet (T2), d-25) was 0.010 µmol/mL and the GSSG/GSH ([2]; 0.1% DMS in diet (T2), d-39) was 0.017. The “Glutathione (GSH)” value ([2]; 0.1% DMS in diet (T2), d-39) was 0.64^ab μmol/mL, the “Oxidized glutathione (GSSG)” value ([2]; 0.1% DMS in diet (T2), d-39) was 0.011 µmol/mL and the Glutathione peroxidase ([2]; 0.1% DMS in diet (T2), d-23) was 0.82 U/mL. For the same compound, the “Heat shock protein 70” value ([2]; 0.1% DMS in diet (T2), d-23) was 1.69 ng/mL, the Malondialdehyde ([2]; 0.1% DMS in diet (T2), d-23) was 14.4 nmol/mL and the Super oxide dismutase ([2]; 0.1% DMS in diet (T2), d-23) was 84.1 % inhibition. For the same compound, the Glutathione peroxidase ([2]; 0.1% DMS in diet (T2), d-25) was 0.84 U/mL, the “Heat shock protein 70” value ([2]; 0.1% DMS in diet (T2), d-25) was 1.07 ng/mL and the Malondialdehyde ([2]; 0.1% DMS in diet (T2), d-25) was 14.3 nmol/mL. For the same compound, the Super oxide dismutase ([2]; 0.1% DMS in diet (T2), d-25) was 81.3 % inhibition, the Glutathione peroxidase ([2]; 0.1% DMS in diet (T2), d-39) was 0.97 U/mL and the “Heat shock protein 70” value ([2]; 0.1% DMS in diet (T2), d-39) was 2.77 ng/mL. For the same compound, the Malondialdehyde ([2]; 0.1% DMS in diet (T2), d-39) was 15.7 nmol/mL, the Super oxide dismutase ([2]; 0.1% DMS in diet (T2), d-39) was 79.5 % inhibition and the Nitric oxide ([2]; 0.1% DMS in diet (T2), d-23) was 6.02 µmol/L. For the same compound, the “T3 (triiodothyronine)” value ([2]; 0.1% DMS in diet (T2), d-23) was 2.43^a μg/L, the Nitric oxide ([2]; 0.1% DMS in diet (T2), d-25) was 4.31 µmol/L and the “T3 (triiodothyronine)” value ([2]; 0.1% DMS in diet (T2), d-25) was 1.74 µg/L. The T3/T4 ([2]; 0.1% DMS in diet (T2), d-25) was 0.342, the “T4 (thyroxine)” value ([2]; 0.1% DMS in diet (T2), d-25) was 0.53 µg/dL and the Nitric oxide ([2]; 0.1% DMS in diet (T2), d-39) was 3.84 µmol/L. The “T3 (triiodothyronine)” value ([2]; 0.1% DMS in diet (T2), d-39) was 1.10 µg/L, the T3/T4 ([2]; 0.1% DMS in diet (T2), d-39) was 0.193 and the “T4 (thyroxine)” value ([2]; 0.1% DMS in diet (T2), d-39) was 0.60 µg/dL. For the same compound, the GSSG/GSH ([2]; 0.2% DMS in diet (T3), d-23) was 0.018, the “Glutathione (GSH)” value ([2]; 0.2% DMS in diet (T3), d-23) was 1.25 µmol/mL and the “Oxidized glutathione (GSSG)” value ([2]; 0.2% DMS in diet (T3), d-23) was 0.023 µmol/mL. For the same compound, the GSSG/GSH ([2]; 0.2% DMS in diet (T3), d-25) was 0.013^b, the “Glutathione (GSH)” value ([2]; 0.2% DMS in diet (T3), d-25) was 0.70 µmol/mL and the “Oxidized glutathione (GSSG)” value ([2]; 0.2% DMS in diet (T3), d-25) was 0.009 µmol/mL. The GSSG/GSH ([2]; 0.2% DMS in diet (T3), d-39) was 0.015, the “Glutathione (GSH)” value ([2]; 0.2% DMS in diet (T3), d-39) was 0.67^a μmol/mL and the “Oxidized glutathione (GSSG)” value ([2]; 0.2% DMS in diet (T3), d-39) was 0.010 µmol/mL. For the same compound, the Glutathione peroxidase ([2]; 0.2% DMS in diet (T3), d-23) was 0.92 U/mL, the “Heat shock protein 70” value ([2]; 0.2% DMS in diet (T3), d-23) was 1.00 ng/mL and the Malondialdehyde ([2]; 0.2% DMS in diet (T3), d-23) was 14.2 nmol/mL. For the same compound, the Super oxide dismutase ([2]; 0.2% DMS in diet (T3), d-23) was 80.4 % inhibition, the Glutathione peroxidase ([2]; 0.2% DMS in diet (T3), d-25) was 0.86 U/mL and the “Heat shock protein 70” value ([2]; 0.2% DMS in diet (T3), d-25) was 1.08 ng/mL. It also gave a Malondialdehyde ([2]; 0.2% DMS in diet (T3), d-25) of 13.2 nmol/mL, a Super oxide dismutase ([2]; 0.2% DMS in diet (T3), d-25) of 84.1 % inhibition and a Glutathione peroxidase ([2]; 0.2% DMS in diet (T3), d-39) of 1.09 U/mL. The “Heat shock protein 70” value ([2]; 0.2% DMS in diet (T3), d-39) was 4.23 ng/mL, the Malondialdehyde ([2]; 0.2% DMS in diet (T3), d-39) was 14.9 nmol/mL and the Super oxide dismutase ([2]; 0.2% DMS in diet (T3), d-39) was 87.1 % inhibition. The Nitric oxide ([2]; 0.2% DMS in diet (T3), d-23) was 6.06 µmol/L, the “T3 (triiodothyronine)” value ([2]; 0.2% DMS in diet (T3), d-23) was 2.06^b μg/L and the Nitric oxide ([2]; 0.2% DMS in diet (T3), d-25) was 4.48 µmol/L. The “T3 (triiodothyronine)” value ([2]; 0.2% DMS in diet (T3), d-25) was 1.72 µg/L, the T3/T4 ([2]; 0.2% DMS in diet (T3), d-25) was 0.351 and the “T4 (thyroxine)” value ([2]; 0.2% DMS in diet (T3), d-25) was 0.50 µg/dL. For the same compound, the Nitric oxide ([2]; 0.2% DMS in diet (T3), d-39) was 3.14 µmol/L, the “T3 (triiodothyronine)” value ([2]; 0.2% DMS in diet (T3), d-39) was 1.12 µg/L and the T3/T4 ([2]; 0.2% DMS in diet (T3), d-39) was 0.180. The “T4 (thyroxine)” value ([2]; 0.2% DMS in diet (T3), d-39) was 0.63 µg/dL.
